Data: patent publication US7262210B2, “Fluorinated pyridine N-oxide thrombin modulators and process for N-oxidation of nitrogen containing heteroaryls” (Janssen Pharmaceutica N.V., priority 2005, dated 2007)
Structures can show the parent of a compound that is named as a salt.

Target: T1, Human α-thrombin (Homo sapiens, UniProt P00734)
T1 construct: Human α-thrombin (Enzyme Research Laboratories HT1002a); purchased Enzyme Research Laboratories (South Bend, Ind.) HT1002a
Test: In vitro inhibition of purified enzyme; kinetic analysis by chromogenic substrates
Assay type: biochemical
Details: substrate SucAAPR pNA 100 uM, Km=320 μM, Ki factor=0.76; 37° C., pH 7.5, 4% DMSO; thrombin 1.1 nM; Ki=IC50×Ki factor
Description: In Vitro Inhibition of Purified Enzyme
Reagents: All buffer salts were obtained from Sigma Chemical Company (St. Louis, Mo.), and were of the highest purity available.
Human α-thrombin, was obtained from Enzyme Research Laboratories (South Bend, Ind.).
Kinetic Analysis by Chromogenic Substrates
Compounds were assessed for their inhibitory activity toward Thrombin by kinetic analysis using para-nitroaniline chromogenic substrates monitored at 405 nm. The assay buffer employed was 50 mM HEPES, pH 7.5, 200 mM NaCl, and fresh 0.05% n-octyl β-d-glucopyranoside. DMSO was present at a final concentration of 4%, derived from the substrate and inhibitory compound stock solutions. […] Reactions were initiated by addition of 10 μL protease, and increase in absorbance due to proteolytic cleavage of substrate was kinetically monitored at 37° C., 405 nm with a Molecular Devices Spectramax 340 platereader. Initial velocities were determined by analysis of the initial linear portion of the reactions. Plots of vo/vi vs. inhibitor concentration, where vo=velocity without inhibitor, and vi=inhibited velocity, were fit to a linear regression line, and the IC50 was determined from the reciprocal of the slope. […]

- Ki: 9.8 to 11 nM
Compound: N#Cc1cc(F)c(NCC(F)(F)c2ccccn2)[n+]([O-])c1CC(=O)NCc1ncccc1F [Example 1, 2-[3-Cyano-6-(2,2-difluoro-2-pyridin-2-yl-ethylamino)-5-fluoro-1-oxy-pyridin-2-yl]-N-(3-fluoro-pyridin-2-ylmethyl)-acetamide dihydrochloride]
